We go through eight molecules from patent US20070031511A1, “Method of treatment” (priority 2003, published 2007).

Where two headings read alike, the source gives them in different places. Where a SMILES comes first, the peptide text is derived from it. Where no end group is shown, it is not given here. [ ]: non-standard residue; d: D form. pGlu = O=C1CC[C@@H](C(=O)O)N1

In one test the test system is hepatoma cell lines. The settings on record: Kicic et al, 2001; cited from earlier work.
Test [1] concerns HT29 human colorectal carcinoma cells. As to the kind of experiment: Ggly-stimulated inositol phosphate production in HT29 cells. In kind it is cell-based. The settings on record: HT29 cells. Here is the method:
(§1) Intracellular inositol phosphate production was determined as described previously (Qian et al, 1993). IMGE-5 cells (10^5 cells/ml) were plated in 24-multiwell culture plates in DMEM supplemented with 10% FBS, 200 IU/ml penicillin and 200 μg/ml streptomycin. 24 h later, cells were incubated with DMEM supplemented with antibiotics and Myo-[2-^3H]inositol (2.5 μCi/well) and shifted to 39° C. for 16 h. Cells were then washed with pre-warmed DMEM and incubated (20-30 minutes, 37° C.) with DMEM supplemented with 20 mM LiCl. Loaded cells were then washed in 1 ml of IP buffer (135 mM NaCl, 20 mM N-(2-hydroxyethyl)piperazine-N′-(2-ethanesulfonic acid), 2 mM CaCl2, 1.2 mM MgSO4, 1 mM ethylene glycol-bis(2-aminoethylether)-N,N,N′,N′-tetraacetic acid, 10 mM LiCl, and 0.5% bovine serum albumin, pH 7.45) and incubated with or without agonist in a final volume of 0.5 ml of IP buffer. After 1-h incubation at 37° C., the reaction was stopped by removing the incubation medium and adding 1 ml of a mixture of ethanol/HCl (2000:1; v/v). One ml of each aliquot was applied to a column containing 1.6 ml of a 1:2 (v/v) Dowex AG-1-X8 anion exchange resin in distilled water. The columns were washed with 4 ml of distilled water, followed by 4 ml of 40 mM HCOONH4, and inositol phosphates were eluted with 4 ml of 1 M HCOONH4. The radioactivity of each eluate was counted after addition of Complete phase combining system solution (Amersham, UK). For the positive control, IMGE-5 cells were incubated with a combination of 30 mM NaF and 10 μM AlCl3 under the same experimental conditions.
Ggly-stimulated inositol phosphate production was measured in HT29 human colorectal carcinoma cells.

The target of test [2] is T1, CCK-2 receptor (Homo sapiens, UniProt P32239).
T1 sequence (P32239 1-447): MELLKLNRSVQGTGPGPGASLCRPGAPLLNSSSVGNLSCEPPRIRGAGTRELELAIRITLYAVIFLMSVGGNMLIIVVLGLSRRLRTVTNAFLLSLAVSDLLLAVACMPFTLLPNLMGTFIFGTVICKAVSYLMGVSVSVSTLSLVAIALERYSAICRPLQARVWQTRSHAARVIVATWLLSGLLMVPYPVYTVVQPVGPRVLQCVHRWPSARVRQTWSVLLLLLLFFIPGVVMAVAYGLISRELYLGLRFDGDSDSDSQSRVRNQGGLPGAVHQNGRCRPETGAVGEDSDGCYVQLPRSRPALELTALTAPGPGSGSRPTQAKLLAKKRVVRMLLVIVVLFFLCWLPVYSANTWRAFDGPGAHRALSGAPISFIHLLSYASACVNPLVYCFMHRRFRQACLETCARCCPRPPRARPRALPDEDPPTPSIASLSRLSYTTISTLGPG
Briefly: Gamide-stimulated inositol phosphate production in COS-7 cells transfected with the CCK-2 receptor. The test is classed as cell-based. The settings on record: for Stimulation of inositol phosphate production: 10 nM peptide. Set-up: COS-7 cells transiently transfected with CCK-2 receptor cDNA; expressed in transfected cells; host or cells: COS-7. Here is the method: as §1
Gamide-stimulated inositol phosphate production was measured in COS-7 cells transfected with the CCK-2 receptor. […] Bismuth ions alone had no effect on inositol phosphate production in CCK-2 receptor-transfected COS-7 cells and HT29 cells, even at the highest concentration tested.
We then investigated the role of the individual glutamates in biological activity. The effects of the mutants GamideE7A and GamideE8,9A on inositol phosphate production in COS-7 cells transiently transfected with the CCK-2 receptor were compared.

For a further test, the system named is IMGE-5 cells. As to the kind of experiment: IMGE-5 cell proliferation, MTT assay. The test is classed as cell-based, mice. Here is the method:
The IMGE-5 cell line was established from the gastric mucosa of mice transgenic for a temperature-sensitive mutant of the SV40 large T antigen (Hollande et al, 2001). IMGE-5 cells were generally grown at 33° C. in DMEM containing 1 unit/ml γ-interferon, 10% FBS, 100 U/ml penicillin, and 100 μg/ml streptomycin (permissive conditions). For all experiments, cells were transferred to 39° C. in the same medium without […] (non-permissive conditions), where they display differentiated characteristics such as expression of functional adherens and tight junctions. All experiments have been performed on cells between passages 20 and 35.
A colorimetric assay was used to measure cell proliferation. Briefly, IMGE-5 cells were seeded in a 96-well plate at a density of 10^4 cells/well in DMEM containing 10% FBS and antibiotics. The following day, cells were synchronized in Go by incubation for 24 h in the same medium lacking FBS. The medium was replaced the next day with fresh medium containing 1% FBS and antibiotics and the peptides under investigation, and incubation was continued for 72 h. 15 μl of 5 mg/ml 3-(4,5-dimethylthiazol-2-yl)-2-5-diphenyltetrazolium bromide (MTT, Sigma, St Louis Mo.) was added per well, and the plate was incubated at 37° C. for 4 h before the medium was discarded. 200 μl 40 mM HCl in isopropanol was added to lyse the cells, and the absorbance at 570 nm was read on a BioRad Model 550 Microplate reader (BioRad, Hercules, Calif.).
A general note: Tetrazolium assays rely on reduction of a dye to a coloured formazan, in cell work by metabolically active cells.

The conditions of test [3]: pH 4.0; Ref. 8 given in table; read-out: Kd (μM), apparent dissociation constant for ferric ions; cited from earlier work.
A short description of test [4]: Quenching of peptide tryptophan fluorescence by ferric ions (stoichiometry, apparent Kd). The test is classed as binding. The settings on record: pH 4.0; mean ± S.E.; read-out: Kd (μM) of ferric ion binding (amidated gastrin17 and related peptides). The protocol:
The tryptophan fluorescence of peptide solutions was measured in 3 mL quartz cuvettes thermostated at […], with a Spex Fluorolog-2 spectrofluorimeter (Spex Industries, Edison, N.J.), with the excitation and emission wavelengths set at 290 and 345 nm, respectively. The quenching of tryptophan fluorescence induced by the binding of metal ions was used to calculate the fraction of binding sites occupied, fa: fa=(yf−y)/(yf−yb) where y is the fluorescence signal at a given concentration of metal ions and yb and yf are the signals when the binding sites are fully occupied and unoccupied, respectively (Winzor et al, 1995). The stoichiometry, p, and apparent dissociation constant, Kd, were then obtained, using the program Sigmastat (Jandel Scientific, San Rafael, Calif.), from the intercept and slope of a linear regression of the data transformed as described by Winzor and Sawyer (1995) in terms of the equation Cs/fa=pCa+Kd/(1−fa) where Cs is the total concentration of metal ions, and Ca is the total concentration of glycine-extended gastrin17. For the bismuth binding studies, the data was fitted by non-linear regression with the program Sigmaplot (Jandel Scientific, San Rafael, Calif.) to the equations for models with one binding site or two binding sites with identical affinities: fa=x/(Kd1+x) or to the model with two binding sites with different affinities: fa=(Kd1·x+Kd2·x+2x^2)/2(Kd1·Kd2+Kd1·x+Kd2·x+x^2) where x is the concentration of free metal ions, Kd1 is the first site dissociation constant and Kd2 is the second site dissociation constant. For the one-site model the value of x at any given total concentration of metal ions was obtained by exact solution of the appropriate quadratic (Malby et al, 2001). For the two-site models the value of x was obtained by an iterative Newton-Raphson procedure (Linse et al, 1991). Absorption Spectroscopy
The tryptophan fluorescence of progastrin6-80, glycine-extended gastrin17 and related peptides was measured in the presence of increasing concentrations of ferric ions in 10 mM sodium acetate, pH 4.0, 100 mM NaCl, 0.005% Tween 20. […] Values from the indicated number of independent experiments were combined to obtain the mean values (±S.E.) presented above. No binding of ferric ions to Ggly1-4 or Ggly12-18 was observed.
The tryptophan fluorescence of amidated gastrin17 and related peptides was measured in the presence of increasing concentrations of ferric ions at pH 4.0 (8). Values of the stoichiometry and the apparent dissociation constant (Kd) were obtained from linear transformations of the data presented in FIG. 20A by least squares fitting. Values from the indicated number of independent experiments were combined to obtain the mean values (±S.E.) presented above.

In test [5] the target is T1, CCK-2 receptor. Briefly: [125I]-BH-CCK8 displacement, CCK-2 receptor on Jurkat cells. In kind it is binding. The settings on record: for Ratio IC50 mutant/IC50 Gamide: T-lymphoblastoid Jurkat cells; for % Maximum Binding (Jurkat): binding in the absence of competitor, fitted, mean ± S.E. Here is the method:
(§2) Non-specific binding was evaluated with […] of unlabelled CCK8. Incubation was stopped by adding 2 ml of ice-cold PBS containing 2% bovine serum albumin. After centrifugation, supernatants were removed and the radioactivity bound to the cell membranes was measured in a γ-counter (LKB, Wallac, Finland).

Test [6] concerns the target T1, CCK-2 receptor. Briefly: [125I]-BH-CCK8 displacement, CCK-2 receptor on transiently transfected COS-7 cells. The test is classed as binding. Set-up: COS-7 cells transiently transfected with CCK-2 receptor cDNA; expressed in transfected cells; host or cells: COS-7. The settings on record: for % Maximum Binding (COS-7): binding in the absence of competitor, fitted, mean ± S.E.; for Predicted ordinate intercept, FIG. 21: single experiment; for Ratio IC50 mutant/IC50 Gamide: transfected COS-7 cells. The protocol: as §2
The lines of best fit shown in FIG. 21 were obtained by nonlinear regression to a single site model with the program Sigmaplot.

As to `Cc1ncc(CO)c(C=NNC(=O)c2ccncc2)c1O` [pyridoxal isonicotinoyl hydrazone], the “Inhibition of proliferation of hepatoma cell lines in vitro” value (“Inhibition” for short) with hepatoma cell lines is on record as “effective inhibitors”.
For the molecule `[F][Al-]([F])([F])[F]` [AlF4^−], the “Increase in inositol phosphate production” value in test [1] is given as 2.6 fold; at CCK-2 receptor [2] (COS-7 cells transfected with the CCK-2 receptor, 10 μM AlF4−, 10 nM Gamide), 5 fold.
In the case of `O=C(O)CN(CCN(CC(=O)O)CC(=O)O)CCN(CC(=O)O)CC(=O)O` [DTPA, diethylene triamine pentaacetic acid], in the test with hepatoma cell lines, the “Inhibition” value is reported as “the best inhibitor of all those tested”.
Regarding `Cc1c(O)c(=O)ccn1C` [1,2-dimethyl-3-hydroxypyridin-4-one], the “Inhibition” value in the test on hepatoma cell lines was “effective inhibitors”.
Regarding “ZGPWLE5A ([pGlu]GPWLEEEEEA; listed as Homo sapiens) [Ggly1-11]”, the “Stimulation of IMGE-5 cell proliferation” value in the test with IMGE-5 cells (MTT assay, peptides shown at 1 nM (FIGS. 7A, 8A)) is “did increase proliferation, but to a significantly lesser extent than Ggly”. In the test with IMGE-5 cells (cell proliferation or wound healing assays (FIG. 7)), the “Reduction of activity relative to Ggly” value is “approximately 50%”. Moreover, the Kd in test [3] is 1.2 ± 0.04 µM.
Turning to `O=C(O)CN(CCN(CC(=O)O)CC(=O)O)CC(=O)O` [EDTA, ethylene diamine tetraacetic acid], the “Inhibition” value with hepatoma cell lines is “ineffective”.
For `CSCC[C@H](NC(=O)[C@H](Cc1c[nH]c2ccccc12)NC(=O)CNC(=O)[C@H](Cc1ccc(O)cc1)NC(=O)[C@H](C)NC(=O)[C@H](CCC(=O)O)NC(=O)[C@H](C)NC(=O)[C@H](C)NC(=O)[C@H](CCC(=O)O)NC(=O)[C@H](CCC(=O)O)NC(=O)[C@H](CC(C)C)NC(=O)[C@H](Cc1c[nH]c2ccccc12)NC(=O)[C@@H]1CCCN1C(=O)CNC(=O)[C@@H]1CCC(=O)N1)C(=O)N[C@@H](CC(=O)O)C(=O)N[C@@H](Cc1ccccc1)C(N)=O` [GamideE8, 9A] ([pGlu]GPWLEEAAEAYGWMDF-NH2), in test [4], the Kd came out at 0.16 ± 0.06 µM. Moreover, at CCK-2 receptor [5], the “Ratio IC50 mutant/IC50 Gamide” value is on record as 2.2 and the “% Maximum Binding (Jurkat)” value came to 97.8 ± 9.0%. Moreover, the “Stimulation of inositol phosphate production” value on CCK-2 receptor [2] is “No significant difference was observed in the extent of stimulation”. Also, on CCK-2 receptor [6], the “% Maximum Binding (COS-7)” value was found to be 98.4 ± 2.1%; the “Predicted ordinate intercept, FIG. 21” value was 91.0%; the “Ratio IC50 mutant/IC50 Gamide” value was determined as 4.1.
Regarding `CSCC[C@H](NC(=O)[C@H](Cc1c[nH]c2ccccc12)NC(=O)CNC(=O)[C@H](Cc1ccc(O)cc1)NC(=O)[C@H](C)NC(=O)[C@H](CCC(=O)O)NC(=O)[C@H](CCC(=O)O)NC(=O)[C@H](CCC(=O)O)NC(=O)[C@H](C)NC(=O)[C@H](CCC(=O)O)NC(=O)[C@H](CC(C)C)NC(=O)[C@H](Cc1c[nH]c2ccccc12)NC(=O)[C@@H]1CCCN1C(=O)CNC(=O)[C@@H]1CCC(=O)N1)C(=O)N[C@@H](CC(=O)O)C(=O)N[C@@H](Cc1ccccc1)C(N)=O` [GamideE7A] ([pGlu]GPWLEAEEEAYGWMDF-NH2), the Kd in test [4] is 0.17 ± 0.03 µM. Moreover, on CCK-2 receptor [5], the “Ratio IC50 mutant/IC50 Gamide” value amounted to 2.4 and the “% Maximum Binding (Jurkat)” value is 96.7 ± 4.6%. In addition, the “Stimulation of inositol phosphate production” value at CCK-2 receptor [2] was “No significant difference was observed in the extent of stimulation”. For the same molecule, on CCK-2 receptor [6], the “% Maximum Binding (COS-7)” value is given as 92.0 ± 1.0%; the “Predicted ordinate intercept, FIG. 21” value was 91.6%; the “Ratio IC50 mutant/IC50 Gamide” value worked out at 1.4.
